These results are taken from US20050158425A1, “Thin mouthfeel calcium-fortified beverage containing calcium lactate gluconate citrate” (PURAC BIOCHEM BV, priority 2003, published 2005).

Series [1] in a line: Dissolution rate of calcium-fortified beverages by conductivity. Type of series: physicochemical. The conditions noted are these: 20° C. On the procedure: The dissolution rates of calcium lactate gluconate (ratio Ca lactate:Ca gluconate 80/20) and calcium lactate gluconate citrate (in a ratio calcium lactate:calcium gluconate:calcium citrate of 12.7:47.8:39.5) beverages were determined by measuring the conductivity and calculating the dissolution rate from the conductivity indices. Said beverages contained 10, and 30% R.D.I respectively in water at 20° C., 30% in apple juice at 20° C. and 10% in cranberry juice at 20° C.

The nature of series [2]: Hygroscopicity of powdered samples. Type of series: physicochemical. To be noted: for water pick up (hygroscopicity): 20° C., 60% relative humidity, 21 days, powdered sample; for state of powdered sample (hygroscopicity): 35° C., 70% relative humidity. On the procedure:
The hygroscopicities of powdered samples of calcium lactate gluconate citrate (in a ratio calcium lactate:calcium gluconate:calcium citrate of 12.7:47.8:39.5) and calcium lactate gluconate (lactate/gluconate ratio 20/80) were measured at 20° C. at 60% relative humidity and at 35° C. at 70% relative humidity. At 20° C. at 60% relative humidity both samples hardly pick up any water (about 1%) for 21 days.

For the compound `CC(O)C(=O)[O-].O=C([O-])[C@H](O)[C@@H](O)[C@H](O)[C@H](O)CO.[Ca+2]` [Calcium lactate gluconate, calcium lactate gluconate], the “Dissolution time in seconds (at conductivity 99.5)” value in series [1] (Apple juice (30% RDI)) was found to be 25 s; in series [1] (Cranberry juice (10% RDI)), 34 s; in series [1] (Water (10% RDI)), 35 s.
On to `CC(O)C(=O)[O-].O=C([O-])[C@H](O)[C@@H](O)[C@H](O)[C@H](O)CO.[Ca+2]` [calcium lactate gluconate (20/80), calcium lactate gluconate], for which, in series [2], the “water pick up (hygroscopicity)” value is reported as “about 1%” and the “state of powdered sample (hygroscopicity)” value is given as “completely liquefied within 2 days”.
As to `CC(O)C(=O)O.O=C(O)[C@H](O)[C@@H](O)[C@H](O)[C@H](O)CO.O=C([O-])CC(O)(CC(=O)[O-])C(=O)O.[Ca+2]` [calcium lactate gluconate citrate], in series [2], the “water pick up (hygroscopicity)” value is “about 1%”. Besides, in series [2], the “state of powdered sample (hygroscopicity)” value is “still had the powdered structure and appeared unchanged after 20 days”. Also, in series [2] (at increased temperatures), the hygroscopicity entry is recorded as “very low hygroscopicity”. The “Dissolution time in seconds (at conductivity 99.5)” value is 30 s in series [1] (Apple juice (30% RDI)), 27 s in series [1] (Cranberry juice (10% RDI)) and 23 s in series [1] (Water (10% RDI)).
